The text below walks through data of publication PMC4634704 (Bioorganic & medicinal chemistry letters, 2015).

Read-outs that look alike come from different tables or passages of the source.

One data set can be described thus: Rat plasma stability. Particulars: 4 h incubation; 37 °C.
For the next data set, the system named is mGlu1-4,6-8. Put plainly: mGlu family selectivity. The format is cell-based. The following applies: selectivity versus other mGlu family members.
The target in data set [1] is mGlu5 (Rattus norvegicus, UniProt P31424). Put plainly: Allosteric agonism in rat astrocytes. Particulars: mGlu5 endogenously expressed. In kind it is cell-based.
Chain of mGlu5 (Rattus norvegicus, UniProt P31424) (P31424 21-1203): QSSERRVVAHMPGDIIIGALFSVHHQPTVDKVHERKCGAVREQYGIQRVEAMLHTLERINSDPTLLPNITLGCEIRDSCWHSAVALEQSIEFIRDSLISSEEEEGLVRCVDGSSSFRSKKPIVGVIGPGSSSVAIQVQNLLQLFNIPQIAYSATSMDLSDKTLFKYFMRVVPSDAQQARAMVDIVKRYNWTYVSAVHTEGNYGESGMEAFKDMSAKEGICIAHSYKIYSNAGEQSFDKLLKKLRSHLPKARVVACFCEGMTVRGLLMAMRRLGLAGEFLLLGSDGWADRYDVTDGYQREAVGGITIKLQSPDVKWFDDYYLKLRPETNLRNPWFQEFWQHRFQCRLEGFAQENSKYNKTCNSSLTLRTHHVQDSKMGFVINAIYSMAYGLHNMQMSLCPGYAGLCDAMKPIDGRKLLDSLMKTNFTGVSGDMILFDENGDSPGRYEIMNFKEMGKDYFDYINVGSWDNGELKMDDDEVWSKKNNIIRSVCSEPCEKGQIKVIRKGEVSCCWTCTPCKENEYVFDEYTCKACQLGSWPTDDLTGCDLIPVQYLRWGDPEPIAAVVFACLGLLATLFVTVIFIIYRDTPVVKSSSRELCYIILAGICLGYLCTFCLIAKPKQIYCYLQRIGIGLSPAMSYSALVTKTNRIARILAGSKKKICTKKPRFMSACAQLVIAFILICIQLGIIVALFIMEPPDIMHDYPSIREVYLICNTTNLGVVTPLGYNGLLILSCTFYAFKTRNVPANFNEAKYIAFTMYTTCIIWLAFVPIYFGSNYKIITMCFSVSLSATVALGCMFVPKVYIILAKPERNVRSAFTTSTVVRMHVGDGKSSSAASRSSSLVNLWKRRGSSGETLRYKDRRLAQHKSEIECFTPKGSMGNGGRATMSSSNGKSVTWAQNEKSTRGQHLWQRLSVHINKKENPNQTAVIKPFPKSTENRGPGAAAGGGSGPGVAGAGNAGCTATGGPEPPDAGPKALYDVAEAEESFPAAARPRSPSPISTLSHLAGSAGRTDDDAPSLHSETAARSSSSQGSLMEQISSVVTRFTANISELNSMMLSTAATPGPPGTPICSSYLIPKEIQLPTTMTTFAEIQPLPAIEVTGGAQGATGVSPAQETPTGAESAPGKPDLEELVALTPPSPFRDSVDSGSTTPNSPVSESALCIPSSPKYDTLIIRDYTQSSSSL
Data set [2] relates to 68 distinct GPCRs, ion channels and transporters. Put plainly: Broad panel ancillary screen. Particulars: 68 targets, Eurofins Inc. In kind it is binding.
Data set [3] is described as follows: Hepatic microsomal intrinsic clearance, rat. The following applies: predicted hepatic clearance.
Data set [4] is described as follows: Simulated gastric fluid solubility and stability. The following applies: 1 h, 37 °C.
The target of data set [5] is mGlu5 (Homo sapiens, UniProt P41594). Briefly: Allosteric agonism in cell lines over expressing mGlu5. The format is cell-based.
Chain of mGlu5 (Homo sapiens, UniProt P41594) (P41594 21-1212): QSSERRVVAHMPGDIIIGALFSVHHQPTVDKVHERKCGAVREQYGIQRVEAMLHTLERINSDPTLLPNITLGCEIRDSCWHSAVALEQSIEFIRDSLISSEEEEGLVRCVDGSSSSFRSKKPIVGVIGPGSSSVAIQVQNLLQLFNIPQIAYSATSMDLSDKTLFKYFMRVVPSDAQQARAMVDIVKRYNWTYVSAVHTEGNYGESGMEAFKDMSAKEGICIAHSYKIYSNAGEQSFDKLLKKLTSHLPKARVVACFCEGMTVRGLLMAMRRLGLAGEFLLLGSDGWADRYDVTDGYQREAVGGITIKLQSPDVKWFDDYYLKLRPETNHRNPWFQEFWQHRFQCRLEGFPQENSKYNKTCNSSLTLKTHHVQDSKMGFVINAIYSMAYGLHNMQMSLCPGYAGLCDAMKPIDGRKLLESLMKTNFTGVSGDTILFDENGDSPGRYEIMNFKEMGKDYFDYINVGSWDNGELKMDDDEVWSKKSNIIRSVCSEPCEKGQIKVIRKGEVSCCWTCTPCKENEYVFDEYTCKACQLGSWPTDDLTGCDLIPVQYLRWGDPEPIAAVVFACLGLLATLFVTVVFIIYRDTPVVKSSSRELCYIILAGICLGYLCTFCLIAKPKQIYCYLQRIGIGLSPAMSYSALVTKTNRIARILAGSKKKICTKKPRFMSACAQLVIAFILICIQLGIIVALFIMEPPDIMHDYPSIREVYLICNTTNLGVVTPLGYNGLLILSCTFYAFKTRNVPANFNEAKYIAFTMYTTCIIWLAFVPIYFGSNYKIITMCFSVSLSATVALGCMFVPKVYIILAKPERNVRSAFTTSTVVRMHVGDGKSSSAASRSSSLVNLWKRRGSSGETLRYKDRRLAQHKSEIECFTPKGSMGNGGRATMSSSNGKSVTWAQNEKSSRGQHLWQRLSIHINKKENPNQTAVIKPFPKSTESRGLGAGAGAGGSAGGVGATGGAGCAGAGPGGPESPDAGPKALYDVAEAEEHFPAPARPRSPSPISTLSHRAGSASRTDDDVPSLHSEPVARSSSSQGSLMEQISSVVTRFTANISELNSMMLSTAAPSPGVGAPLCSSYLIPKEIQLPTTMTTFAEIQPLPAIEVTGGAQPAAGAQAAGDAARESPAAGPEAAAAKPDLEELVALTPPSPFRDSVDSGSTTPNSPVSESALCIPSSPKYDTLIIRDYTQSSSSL
A short description of data set [6]: Hepatic microsomal intrinsic clearance, human. Particulars: predicted hepatic clearance.
The next data set deals with major CYP450 enzymes. Briefly: CYP450 inhibition.
A further data set in a line: Rat IV cassette PK. Particulars: male, Sprague-Dawley, in vivo, 0.2 mg/kg.
Data set [7] is described as follows: Stability in vehicle formulation. In kind it is physicochemical. Particulars: 20% β-CD pH 6, 4 mg/mL, up to five days.
Data set [8] in a line: Terminal brain and plasma levels from AHL studies.
Data set [9] is described as follows: Rat modified Irwin study / acute CNS behavioural observation.
For data set [10] the following is noted: rat, cited from earlier work.
The mark [11] stands for this setting: 30 days, 360 mg/kg/day, IND-enabling.

On to `CC(=O)N1CCCn2nc(COc3ccccc3)cc21` [9a, 1-(2-(phenoxymethyl)-6,7-dihydropyrazolo[1,5-a]pyrimidin-4(5H)-yl)ethanone], for which the rat plasma stability result in “Rat plasma stability” is given as “stable”. Besides, the “FS at mGlu1-4,6-8” value in the data set on mGlu1-4,6-8 is given as under 1.2. Besides, the allosteric agonism entry on mGlu5 [1] and on mGlu5 [5] was “no allosteric agonism was detected” throughout. In addition, the “activity in broad panel ancillary screen” value in data set [2] was “no noted activity”. Further, the “CLhep (r)” value in data set [3] is listed as over 35 mL/min/kg. Besides, the “decomposition in simulated gastric fluid” value in [4] is given as under 5%. In addition, the “CLhep (h)” value in [6] was over 12 mL/min/kg. In addition, the IC50 (commonly the concentration that inhibits the measured activity by half) with major CYP450 enzymes is over 30 µM. Besides, the clearance (commonly the rate of elimination divided by the concentration) in “Discrete rat PK” was “moderate to high”; in the data set “Rat IV cassette PK”, over 70 mL/min/kg; in the data set “Discrete dog PK”, “moderate to high”. Moreover, the “decomposition in vehicle formulation” value in data set [7] was under 5%. Further, the “terminal estimated unbound brain concentration” value in [8] (AHL 3 mg/kg PO, rat) was 199 nM. In [9] (56.6 mg/kg, rat), the brain concentration stood at 113 µM. The compound also registered a safety window in data set [9] (modified Irwin concentrations versus AHL MED) of at least 100 fold. The “behaviour across 30 autonomic and somatomotor endpoints” value in data set [9] (modified Irwin, 30 mg/kg PO, rat) is “no observable alterations in behavior”. In addition, the concentration at 1 h in [9] (rat, in vivo, 30 mg/kg, est. Cb,u, 30 mg/kg PO, 1.0 h post-dose) was found to be 36 µM. In addition, the bioavailability entry in the data set “Discrete dog PK” is “low bioavailability”. In “Discrete dog PK” (IV and oral), the exposure result is recorded as “poor exposure”.
As to `CC(=O)N1CCCn2nc(COc3ccccc3F)cc21` [12a], in the data set “Rat plasma stability”, the rat plasma stability result was “stable”. In addition, in “Rat IV cassette PK”, the clearance is over 70 mL/min/kg. Further, the terminal brain concentration result in data set [8] (AHL 10 mg/kg PO, T90, rat) was “not detected”.
Turning to `CC(=O)N1CCCn2nc(COc3cccc(F)c3)cc21` [12b], the “CLhep (r)” value in data set [3] is over 35 mL/min/kg. For the same compound, the “CLhep (h)” value in data set [6] is over 12 mL/min/kg.
For the compound `O=C(c1ccc(F)cc1)N1CCc2nc(COc3ccccc3)oc2C1` [compound 1], in data set [10] (14 day oral dose-limiting study, 450 mg/kg/day), the neurotoxicity result is reported as “no neurotoxicity was observed”. The exposure in data set [10] (14 day, 450 mg/kg/day) is recorded as 273-440 μM-h. In addition, in data set [10] (setting [11]), the “Fluoro-Jade C staining” value was “induced Fluoro-Jade C staining in a small number of rats” and the exposure is reported as 253-416 μM-h.
